Data taken from EP4729511A1, “COMPOUND OR SALT THEREOF AND METHOD FOR PRODUCING SAME, COMPOSITION, HYDROGEN PEROXIDE REMOVER, AND CYTOTOXICITY INHIBITOR” (Nagase & Co., Ltd., priority 2023, dated 2024).

How the values were obtained:
[1] = Evaluation of hydrogen peroxide removal (OxiSelect hydrogen peroxide assay kit, ADHP/HRP fluorescence); type: biochemical; conditions: as the amount of Compound A increased (doubling dilutions from 10 µM); 4 µM hydrogen peroxide solution; 30 minutes at room temperature; control (Compound A: 0 µM) set as 100%
Experimental: The resulting Compound A (EGT-X) was subjected to several doubling dilutions from 10 µM with the buffer provided with a kit (OxiSelect hydrogen peroxide assay kit (manufactured by CELL BIOLABS, Inc.)), and 25 µL each of the resulting solutions was added to a 96 well plate. Also, a 4 µM solution in which hydrogen peroxide was diluted with the buffer provided with the kit was prepared, and 25 µL each of said solution was added to the 96 well plate. Further, a blank was prepared under the same conditions except for no hydrogen peroxide was added.
Subsequently, according to the protocol described in the kit, 50 µL each of a mixture of ADHP (10-acetyl-3,7-dihydroxyphenoxazine) and HRP(horseradish peroxidase) provided with the kit was added thereto, and the resulting mixture was stirred. After incubated at room temperature for 30 minutes, the fluorescence intensity was measured under the condition of excitation wavelength of 530 nm and fluorescence wavelength of 590 nm. The blank value was subtracted from each measurement value to calculate each value. The percentage values when EGT-X was added were calculated based on the control (Compound A: 0 µM) value set as 100%, and the results were plotted in a graph. (Figures 3 and 4).

HEK293 cells = assay: Evaluation of cytotoxicity inhibition: hydrogen peroxide cytotoxicity against HEK293 cells in the presence of EGT-X (WST-1); type: cell-based; conditions: hydrogen peroxide 0.0015%, cultured 24 hours, WST-1 cell viability
Experimental: After 24 hours, 50 µL each of EGT-X dissolved in a DMEM and hydrogen peroxide dissolved in a DMEM was added to the plate, so that the hydrogen peroxide concentration would be 0 for the control and 0.0015% for the others, and the EGT-X concentration would be those shown in Figures (Figures 5 and 6). […] The absorbance at 450 nm was measured.

## C[N+](C)(C)[C@@H](Cc1c[nH]c(Sc2[nH]c(=S)[nH]c2C[C@@H](C(=O)[O-])[N+](C)(C)C)n1)C(=O)[O-] [Compound A]
[1]
  amount of the residual hydrogen peroxide: decreased
HEK293 cells
  concentration of EGT-X in the presence of which the cytotoxicity caused by hydrogen peroxide was inhibited: ≥ 125 µM
